# Columns and labels:
# [1] = test system: ECHORC (Echinochloa oryzoides); experiment: Flooded paddy, preemergence weed control; assay type: in vivo, Echinochloa oryzoides (Ard.) Fritsch.; details: rated 3-4 weeks after treatment, 0-9 rating scale
# Method in brief: (§1)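 Under paddy conditions, seeds or vegetative propagules go into the top 0.5 cm of silt loam; the soil is then flooded to 1.5–3 cm and kept so. Treated pots stay in a greenhouse; response is rated 0-9 visually versus control.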
# [2] = test system: SAGPY (Sagittaria pygmaea); experiment: Flooded paddy, preemergence weed control; assay type: in vivo, L.; details: rated 3-4 weeks after treatment, 0-9 rating scale
# Method in brief: as §1
# [3] = test system: IPOHE (Ipomoea hederacea); experiment: Postemergence herbicidal evaluation; assay type: in vivo, (L.) Jacq.; details: postemergence
# Method in brief: (§2)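 Seedlings grown for about two weeks were sprayed postemergence and then kept under standard greenhouse care. Injury was rated visually 4–5 weeks after treatment on a 0–9 scale against untreated controls, and ratings from repeat tests were averaged.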
# [4] = test system: CASOB (Cassia obtusifolia); experiment: Preemergence herbicidal evaluation; assay type: in vivo, L.; details: rated 4-5 weeks after treatment
# Method in brief: (§3)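 Greenhouse preemergence test: freshly planted cups were sprayed once with an aqueous acetone solution of compound. Injury was judged visually on a 0–9 scale relative to a control, four to five weeks later.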
# [5] = test system: CHEAL (Chenopodium album); experiment: Preemergence herbicidal evaluation; assay type: in vivo, L.; details: rated 4-5 weeks after treatment
# Method in brief: as §3
# [6] = test system: AMBEL (Ambrosia artemisifolia); experiment: Preemergence herbicidal evaluation; assay type: in vivo, L.; details: rated 4-5 weeks after treatment
# Method in brief: as §3
# CYPIR (Cyperus iria) = experiment: Flooded paddy, preemergence weed control; assay type: in vivo; details: rated 3-4 weeks after treatment, 0-9 rating scale
# Method in brief: as §1
# [7] = test system: ABUTH (Abutilon theophrasti); experiment: Postemergence herbicidal evaluation; assay type: in vivo, Medic.; details: postemergence
# Method in brief: as §2
# [8] = test system: TRZAWR (Wheat, Winter, cv Riband); experiment: Preemergence herbicidal evaluation; assay type: in vivo, Triticum aestivum; details: rated 4-5 weeks after treatment
# Method in brief: as §3
# GALAP (Galium aparine) [9] = experiment: Preemergence herbicidal evaluation; assay type: in vivo; details: rated 4-5 weeks after treatment
# Method in brief: as §3
# ZEAMX (Corn, Field) [10] = experiment: Preemergence herbicidal evaluation; assay type: in vivo, Zea mays, L.; details: rated 4-5 weeks after treatment
# GALAP (Galium aparine) [11] = experiment: Postemergence herbicidal evaluation; assay type: in vivo; details: postemergence
# Method in brief: as §2
# [12] = test system: IPOHE (Ipomoea hederacea); experiment: Preemergence herbicidal evaluation; assay type: in vivo, (L.) Jacq.; details: rated 4-5 weeks after treatment
# [13] = test system: GLXMAW (Soybean, Williams); experiment: Postemergence herbicidal evaluation; assay type: in vivo, Glycine max, (L.) Merr. cv Williams; details: postemergence
# Method in brief: as §2
# ZEAMX (Corn, Field) [14] = experiment: Postemergence herbicidal evaluation; assay type: in vivo, Zea mays, L.; details: postemergence
# Method in brief: as §2
# [15] = test system: CASOB (Cassia obtusifolia); experiment: Postemergence herbicidal evaluation; assay type: in vivo, L.; details: postemergence
# Method in brief: as §2
# [16] = test system: CHEAL (Chenopodium album); experiment: Postemergence herbicidal evaluation; assay type: in vivo, L.; details: postemergence
# Method in brief: as §2
# [17] = test system: AMBEL (Ambrosia artemisifolia); experiment: Postemergence herbicidal evaluation; assay type: in vivo, L.; details: postemergence
# Method in brief: as §2
# ORYSAT (Rice, Tebonnet) = experiment: Preemergence herbicidal evaluation; assay type: in vivo, Oryza sativa, (L.) Tebonnet; details: rated 4-5 weeks after treatment
# [18] = test system: GLXMAW (Soybean, Williams); experiment: Preemergence herbicidal evaluation; assay type: in vivo, Glycine max, (L.) Merr. cv Williams; details: rated 4-5 weeks after treatment
# [19] = test system: ECHCG (Echinochloa crus-galli); experiment: Postemergence herbicidal evaluation; assay type: in vivo, (L.) Beau; details: postemergence
# Method in brief: as §2
smiles,measurement,setting,value
"Cc1sccc1-c1nsc2ccc(-n3c(=O)cc(C(F)(F)F)n(C)c3=O)cc12 [Compound 68, 2,4(1H,3H)-pyrimidinedione, 1-methyl-3-[3-(2-methyl-3-thienyl)-1,2-benzisothiazol-5-yl]-6-(trifluoromethyl)-]","herbicidal rating, ECHORC",[1]; rate 0.0080 kg/ha,7.0
same,"herbicidal rating, ECHORC",[1]; rate 0.0320 kg/ha,8.5
same,"herbicidal rating, ECHORC",[1]; rate 0.1250 kg/ha,9.0
same,"herbicidal rating, SAGPY",[2]; rate 0.0080 kg/ha,0.0
same,"herbicidal rating, SAGPY",[2]; rate 0.0320 kg/ha,0.0
same,"herbicidal rating, SAGPY",[2]; rate 0.1250 kg/ha,9.0
same,IPOHE herbicidal rating,[3]; rate 0.0320 kg/ha,9.0
same,IPOHE herbicidal rating,[3]; rate 0.0620 kg/ha,9.0
same,Preemergence herbicidal rating CASOB,[4]; Rate 0.0620 kg/ha,0.5
same,Preemergence herbicidal rating CASOB,[4]; Rate 0.1250 kg/ha,3.0
same,Preemergence herbicidal rating CASOB,[4]; Rate 0.2500 kg/ha,5.5
same,Preemergence herbicidal rating CHEAL,[5]; Rate 0.0620 kg/ha,9.0
same,Preemergence herbicidal rating CHEAL,[5]; Rate 0.1250 kg/ha,9.0
same,Preemergence herbicidal rating CHEAL,[5]; Rate 0.2500 kg/ha,9.0
same,Preemergence herbicidal rating AMBEL,[6]; Rate 0.0620 kg/ha,3.5
same,Preemergence herbicidal rating AMBEL,[6]; Rate 0.1250 kg/ha,5.0
same,Preemergence herbicidal rating AMBEL,[6]; Rate 0.2500 kg/ha,9.0
same,"herbicidal rating, CYPIR",CYPIR (Cyperus iria); rate 0.0080 kg/ha,0.0
same,"herbicidal rating, CYPIR",CYPIR (Cyperus iria); rate 0.0320 kg/ha,9.0
same,"herbicidal rating, CYPIR",CYPIR (Cyperus iria); rate 0.1250 kg/ha,9.0
same,ABUTH herbicidal rating,[7]; rate 0.0320 kg/ha,9.0
same,ABUTH herbicidal rating,[7]; rate 0.0620 kg/ha,9.0
same,Preemergence herbicidal rating TRZAWR,[8]; Rate 0.0620 kg/ha,2.0
same,Preemergence herbicidal rating TRZAWR,[8]; Rate 0.1250 kg/ha,5.0
same,Preemergence herbicidal rating TRZAWR,[8]; Rate 0.2500 kg/ha,7.0
same,Preemergence herbicidal rating GALAP,GALAP (Galium aparine) [9]; Rate 0.0620 kg/ha,7.0
same,Preemergence herbicidal rating GALAP,GALAP (Galium aparine) [9]; Rate 0.1250 kg/ha,6.0
same,Preemergence herbicidal rating GALAP,GALAP (Galium aparine) [9]; Rate 0.2500 kg/ha,9.0
same,Preemergence herbicidal rating ZEAMX,"ZEAMX (Corn, Field) [10]; Rate 0.0620 kg/ha",2.5
same,Preemergence herbicidal rating ZEAMX,"ZEAMX (Corn, Field) [10]; Rate 0.1250 kg/ha",4.0
same,Preemergence herbicidal rating ZEAMX,"ZEAMX (Corn, Field) [10]; Rate 0.2500 kg/ha",6.0
same,GALAP herbicidal rating,GALAP (Galium aparine) [11]; rate 0.0320 kg/ha,9.0
same,GALAP herbicidal rating,GALAP (Galium aparine) [11]; rate 0.0620 kg/ha,9.0
same,Preemergence herbicidal rating IPOHE,[12]; Rate 0.0620 kg/ha,1.5
same,Preemergence herbicidal rating IPOHE,[12]; Rate 0.1250 kg/ha,3.0
same,Preemergence herbicidal rating IPOHE,[12]; Rate 0.2500 kg/ha,4.5
same,GLXMAW herbicidal rating,[13]; rate 0.0320 kg/ha,6.5
same,GLXMAW herbicidal rating,[13]; rate 0.0620 kg/ha,7.0
same,ZEAMX herbicidal rating,"ZEAMX (Corn, Field) [14]; rate 0.0320 kg/ha",5.5
same,ZEAMX herbicidal rating,"ZEAMX (Corn, Field) [14]; rate 0.0620 kg/ha",6.0
same,CASOB herbicidal rating,[15]; rate 0.0320 kg/ha,5.0
same,CASOB herbicidal rating,[15]; rate 0.0620 kg/ha,6.0
same,CHEAL herbicidal rating,[16]; rate 0.0320 kg/ha,9.0
same,CHEAL herbicidal rating,[16]; rate 0.0620 kg/ha,9.0
same,AMBEL herbicidal rating,[17]; rate 0.0320 kg/ha,9.0
same,AMBEL herbicidal rating,[17]; rate 0.0620 kg/ha,9.0
same,Preemergence herbicidal rating ORYSAT,"ORYSAT (Rice, Tebonnet); Rate 0.0620 kg/ha",2.0
same,Preemergence herbicidal rating ORYSAT,"ORYSAT (Rice, Tebonnet); Rate 0.1250 kg/ha",3.5
same,Preemergence herbicidal rating ORYSAT,"ORYSAT (Rice, Tebonnet); Rate 0.2500 kg/ha",5.0
same,Preemergence herbicidal rating GLXMAW,[18]; Rate 0.0620 kg/ha,1.5
same,Preemergence herbicidal rating GLXMAW,[18]; Rate 0.1250 kg/ha,3.0
same,Preemergence herbicidal rating GLXMAW,[18]; Rate 0.2500 kg/ha,7.5
same,ECHCG herbicidal rating,[19]; rate 0.0320 kg/ha,4.0
same,ECHCG herbicidal rating,[19]; rate 0.0620 kg/ha,5.0
"Cn1c(C(F)(F)F)cc(=O)n(-c2cc3c(C4OCCCO4)nsc3cc2F)c1=O [Compound 62, 3-(3-m-dioxan-2-yl-6-fluoro-1,2-benzisothiazol-5-yl)-1-methyl-6-(trifluoromethyl)uracil]","herbicidal rating, ECHORC",[1]; rate 0.0080 kg/ha,8.5
same,"herbicidal rating, ECHORC",[1]; rate 0.0320 kg/ha,9.0
same,"herbicidal rating, ECHORC",[1]; rate 0.1250 kg/ha,9.0
same,"herbicidal rating, SAGPY",[2]; rate 0.0080 kg/ha,9.0
same,"herbicidal rating, SAGPY",[2]; rate 0.0320 kg/ha,6.0
same,"herbicidal rating, SAGPY",[2]; rate 0.1250 kg/ha,9.0
same,IPOHE herbicidal rating,[3]; rate 0.0320 kg/ha,9.0
same,IPOHE herbicidal rating,[3]; rate 0.0620 kg/ha,9.0
same,Preemergence herbicidal rating CASOB,[4]; Rate 0.0620 kg/ha,9.0
same,Preemergence herbicidal rating CASOB,[4]; Rate 0.1250 kg/ha,9.0
same,Preemergence herbicidal rating CASOB,[4]; Rate 0.2500 kg/ha,9.0
same,Preemergence herbicidal rating CHEAL,[5]; Rate 0.0620 kg/ha,9.0
same,Preemergence herbicidal rating CHEAL,[5]; Rate 0.1250 kg/ha,9.0
same,Preemergence herbicidal rating CHEAL,[5]; Rate 0.2500 kg/ha,9.0
same,Preemergence herbicidal rating AMBEL,[6]; Rate 0.0620 kg/ha,9.0
same,Preemergence herbicidal rating AMBEL,[6]; Rate 0.1250 kg/ha,9.0
same,Preemergence herbicidal rating AMBEL,[6]; Rate 0.2500 kg/ha,9.0
same,"herbicidal rating, CYPIR",CYPIR (Cyperus iria); rate 0.0080 kg/ha,4.5
same,"herbicidal rating, CYPIR",CYPIR (Cyperus iria); rate 0.0320 kg/ha,9.0
same,"herbicidal rating, CYPIR",CYPIR (Cyperus iria); rate 0.1250 kg/ha,9.0
same,ABUTH herbicidal rating,[7]; rate 0.0320 kg/ha,9.0
same,ABUTH herbicidal rating,[7]; rate 0.0620 kg/ha,9.0
same,Preemergence herbicidal rating TRZAWR,[8]; Rate 0.0620 kg/ha,9.0
same,Preemergence herbicidal rating TRZAWR,[8]; Rate 0.1250 kg/ha,9.0
same,Preemergence herbicidal rating TRZAWR,[8]; Rate 0.2500 kg/ha,9.0
same,Preemergence herbicidal rating GALAP,GALAP (Galium aparine) [9]; Rate 0.0620 kg/ha,9.0
same,Preemergence herbicidal rating GALAP,GALAP (Galium aparine) [9]; Rate 0.1250 kg/ha,9.0
same,Preemergence herbicidal rating GALAP,GALAP (Galium aparine) [9]; Rate 0.2500 kg/ha,9.0
same,Preemergence herbicidal rating ZEAMX,"ZEAMX (Corn, Field) [10]; Rate 0.0620 kg/ha",9.0
same,Preemergence herbicidal rating ZEAMX,"ZEAMX (Corn, Field) [10]; Rate 0.1250 kg/ha",9.0
same,Preemergence herbicidal rating ZEAMX,"ZEAMX (Corn, Field) [10]; Rate 0.2500 kg/ha",9.0
same,GALAP herbicidal rating,GALAP (Galium aparine) [11]; rate 0.0320 kg/ha,9.0
same,GALAP herbicidal rating,GALAP (Galium aparine) [11]; rate 0.0620 kg/ha,9.0
same,Preemergence herbicidal rating IPOHE,[12]; Rate 0.0620 kg/ha,9.0
same,Preemergence herbicidal rating IPOHE,[12]; Rate 0.1250 kg/ha,9.0
same,Preemergence herbicidal rating IPOHE,[12]; Rate 0.2500 kg/ha,9.0
same,GLXMAW herbicidal rating,[13]; rate 0.0320 kg/ha,9.0
same,GLXMAW herbicidal rating,[13]; rate 0.0620 kg/ha,9.0
same,ZEAMX herbicidal rating,"ZEAMX (Corn, Field) [14]; rate 0.0320 kg/ha",6.0
same,ZEAMX herbicidal rating,"ZEAMX (Corn, Field) [14]; rate 0.0620 kg/ha",7.0
same,CASOB herbicidal rating,[15]; rate 0.0320 kg/ha,9.0
same,CASOB herbicidal rating,[15]; rate 0.0620 kg/ha,9.0
same,CHEAL herbicidal rating,[16]; rate 0.0320 kg/ha,9.0
same,CHEAL herbicidal rating,[16]; rate 0.0620 kg/ha,9.0
same,AMBEL herbicidal rating,[17]; rate 0.0320 kg/ha,9.0
same,AMBEL herbicidal rating,[17]; rate 0.0620 kg/ha,9.0
same,Preemergence herbicidal rating ORYSAT,"ORYSAT (Rice, Tebonnet); Rate 0.0620 kg/ha",9.0
same,Preemergence herbicidal rating ORYSAT,"ORYSAT (Rice, Tebonnet); Rate 0.1250 kg/ha",9.0
same,Preemergence herbicidal rating ORYSAT,"ORYSAT (Rice, Tebonnet); Rate 0.2500 kg/ha",9.0
same,Preemergence herbicidal rating GLXMAW,[18]; Rate 0.0620 kg/ha,9.0
same,Preemergence herbicidal rating GLXMAW,[18]; Rate 0.1250 kg/ha,9.0
same,Preemergence herbicidal rating GLXMAW,[18]; Rate 0.2500 kg/ha,9.0
same,ECHCG herbicidal rating,[19]; rate 0.0320 kg/ha,6.0
same,ECHCG herbicidal rating,[19]; rate 0.0620 kg/ha,9.0
